Measurements from patent publication US6844174B2, “Fermentation process for lipstatin and method of extracting lipstatin from a fermentation broth” (Biogal Gyogyszergyar Rt., priority 2001, dated 2005).

System: Streptomyces toxytricini
Test: toxic level of linoleic acid in liquid culture of Streptomyces toxytricini
Type: cell-based
From the text: With Streptomyces toxytricini, the toxic level of linoleic acid in liquid culture is about 2,300-3,000 ppm. […] For this reason, the pH of lipstatin fermentation was controlled so that the linoleic acid being liberated from fats and oils was enough for the lipstatin biosynthesis but not raised to a toxic level.

## CCCCC/C=C\C/C=C\CCCCCCCC(=O)O [linoleic acid]
  toxic level of linoleic acid in liquid culture: 2,300-3,000 ppm
